{"source": "patent US10765690B2", "about": "“TLR4 agonists and compositions thereof and their use in the treatment of cancer” (GlaxoSmithKline Intellectual Property Development Limited, priority 2015, dated 2020)", "key": {"[1]": {"test_system": "Murine EMT6 breast epithelial cells", "experiment": "EMT6 breast epithelial syngeneic solid tumor model", "format": "in vivo, Balb/c mice", "experimental": "The in vivo anti-tumor efficacy of the TLR4 agonist (CRX-601) was assessed in the murine EMT6 breast epithelial syngeneic solid tumor model as a monotherapy versus control and anti-PD-1 treatment. Seven to eight week old female Balb/c mice (BALB/cAnNHsd, Envigo) were used in these studies. Murine EMT6 breast epithelial cells (ATCC catalog number lot # CRL-2755) were cultured in RPMI growth medium supplemented with 10% fetal bovine serum (FBS) in a humidified 37° C. incubator with 5% CO2. EMT6 cells cultured in logarithmic growth were harvested from tissue culture flasks and centrifuged for 5 minutes at 450×g at 4° C. for ten minutes to pellet cells. The supernatant was discarded, and cells were washed in ice cold phosphate buffered saline (PBS) without calcium and magnesium and centrifuged again for 5 minutes at 450×g at 4′C for ten minutes to pellet cells. The cells were resuspended in sterile RPMI media without FBS and adjusted to a cell concentration of 1×10^6 cells/ml. 100 μl of the cell stock was implanted via subcutaneous injection into the right flank of each Balb/c mouse. After seven or nine days when the average tumor size reached approximately 100 mm^3, mice were randomized into study cohorts according to tumor size and the first treatment dose was given. The TLR4 agonist (CRX-601) or vehicle was dosed via a systemic intravenous dose once per week for three total doses. The CRX-601 vehicle was 0.5% Glycerol/4% Dextrose, eE 810115-V. The rat anti-mouse PD-1 receptor antibody (clone RMP1-14, BioXCell catalog # BE0146, lot #5792-599016J1) or Rat IgG2a isotype control antibody (BioXCell catalog # BE0089,lot #601416M1B) was dosed via an intraperitoneal injection given every other day for a total of three doses, with the first dose given concurrently with the first CRX-601 dose. Caliper measurements were taken three times per week to assess tumor growth, and mice with tumors >2,000 mm^3 for 2 consecutive measurements or mice with tumors which formed open ulcers were removed from the study. Tumor volume was calculated using the formula (0.52)×(Length)×(Width2). All studies were conducted in accordance with the GSK Policy on the Care, Welfare and Treatment of Laboratory Animals and were reviewed by the Institutional Animal Care and Use Committee at GSK. To determine significance of tumor growth inhibition, tumor volumes 19 days post first dose were compared between the different treatment groups. Treatments were compared by standard ANOVA methods followed by FDR adjustment for multiplicity. Response is square root of volume, for homoscedasticity (equal variance) reasons. Kaplan-Meier (KM) method was carried out to estimate the survival probability of different treatment groups at a given time. For these survival analyses, “Death” means crossing the tumor volume cutoff (2000 mm3). “Survival” means proportion of mice not “Dead”, and “Survival time” means days until “Death”. If a mouse crossed the volume cutoff between two measurement days, then the day of “Death” was estimated by linear interpolation. If a mouse crossed the volume cutoff more than once, the first crossing was used. Treatments were compared by the standard log-rank test for two treatments. The log-rank p-values were adjusted for multiplicity using the FDR (false discovery rate) method. Significance was defined as FDR<=0.05. All calculations and graphs were done using R software, version 3.2.3."}, "[2]": {"test_system": "CT-26 colorectal tumor cells", "experiment": "CT-26 syngeneic colon carcinoma model, escalating i.p. doses (Example 9)", "format": "in vivo, Balb/c mice", "description": "The CT26 mouse colon carcinoma (CT26.WT; ATCC #CRL-2638) cell line was obtained from ATCC. It is an N-nitroso-N-methylurethane-(NNMU) induced, undifferentiated colon carcinoma cell line known in the art. For example, it is described in: Wang M, et al. Active immunotherapy of cancer with a nonreplicating recombinant fowlpox virus encoding a model tumor-associated antigen. J. Immunol. 154: 4685-4692, 1995 (PubMed: 7722321), which is incorporated by reference in its entirety herein. For preparation of tumor cells, A frozen (−140° C.) vial of CT-26 (mouse colon carcinoma cells), from ATCC (cat # CRL-2638, lot #59227052) are thawed and cultured in basic RPMI (with 10% FBS) media over the following week.\nCT-26 cells (passage 12) are harvested from the flask in complete medium. Cells are centrifuged and resuspended in RPMI (without FBS), this step is repeated 3 times. Cell density and viability are checked via trypan blue exclusion. Cells are then diluted to desired density (5×10^5 cells per mL) and kept on ice.\nEscalating doses of CRX 527 are evaluated for their efficacy in reducing tumor growth. Animals are weighed and innoculated on the right hind quarter with 0.5×10^5 CT26 tumor cells per mouse on Day 0. A total of 130 mice are inoculated with tumor cells—assuming 30% failure rate (either too big or too small at time of start of study), the goal is to have n=10 for each group. After tumor cell innoculation, tumor growth and total body weight are measured 3 times a week for the duration of the study. Randomization occurs on day 10 or 11 when the average tumor volume is approximately 100 mm^3. Begining on the day of randomization, animals are dosed with CRX 527 or vehicle i.p. biweekly, for a total of 6 doses. Mice remain on study until tumors reach >2000 cu mm for two consecutive measurements, they are removed from study for other reasons (i.e. weight loss >20%, ulceration on tumor, etc.) or until the end of the study. After euthanization the tumors may be removed and subject to dissociation for flow analysis and/or FFPE for IHC analysis.\nThe above protocol was used to generate the results in FIG. 17 at the dosages indicated. In almost every case, Balb/c mice that were inoculated with 0.5×10^5 CT-26 colorectal tumor cells on the right hind quarter developed tumors that, when treated i.p. with vehicle (2% glycerol) only, and progressed as expected. […] FIG. 17."}}, "note": "Values joined by “and” are separate entries in the source; they are usually repeats but may differ in a detail not shown here. Identical values can stand only once.", "data": [{"smiles": "CCCCCCCCCCC[C@H](CC(=O)N[C@H]1[C@H](OC[C@H](NC(=O)C[C@@H](CCCCCCCCCCC)OCCCCCCCCCC)C(=O)O)O[C@H](CO)[C@@H](OP(=O)(O)O)[C@@H]1OC(=O)C[C@@H](CCCCCCCCCCC)OCCCCCCCCCC)OCCCCCCCCCC", "note": "[CRX-601]", "values": [{"measurement": "increase in survival compared to vehicle group 1", "setting": "[1]; 25 ug CRX-601 IV, by day 33 post EMT6 inoculation, p-value=0.03", "value": "statistically significant"}, {"measurement": "mice remained on study", "setting": "[1]; 25 ug CRX-601 group, day 33", "value": 6, "unit": "mice"}, {"measurement": "tumor free mice", "setting": "[1]; 25 ug CRX-601 group, day 33", "value": 4, "unit": "mice"}, {"measurement": "tumor volumes of remaining tumor-bearing mice", "setting": "[1]; 25 ug CRX-601 group, day 33, individual mice", "value": "649 mm^3 and 382 mm^3"}, {"measurement": "tumor growth inhibition compared to vehicle group 1", "setting": "[1]; 25 ug CRX-601 intravenous once per week x3 (+200 ug Rat IgG2a), 19 days after the initial dose, p-value<0.001", "value": "statistically significant tumor growth inhibition"}, {"measurement": "tumor growth inhibition compared to anti-PD-1 treatment group 3", "setting": "[1]; 25 ug CRX-601 intravenous once per week x3, 19 days after the initial dose, p-value=0.041", "value": "statistically significant tumor growth inhibition"}, {"measurement": "Mean % Inhibition", "setting": "[2]; 4 ug, study day 14 (9/16)", "value": "−59.63", "unit": "%"}, {"measurement": "Mean % Inhibition", "setting": "[2]; 4 ug, study day 17 (9/19)", "value": 4.57, "unit": "%"}, {"measurement": "Mean % Inhibition", "setting": "[2]; 4 ug, study day 21 (9/23)", "value": "−1.55", "unit": "%"}, {"measurement": "Mean % Inhibition", "setting": "[2]; 4 ug, study day 24 (9/26)", "value": 21.73, "unit": "%"}, {"measurement": "Mean % Inhibition", "setting": "[2]; 4 ug, study day 28 (9/30)", "value": 7.65, "unit": "%"}, {"measurement": "Mean % Inhibition", "setting": "[2]; 4 ug, study day 31 (10/3)", "value": "−34.14", "unit": "%"}, {"measurement": "Mean % Inhibition", "setting": "[2]; 20 ug, study day 14 (9/16)", "value": 42.34, "unit": "%"}, {"measurement": "Mean % Inhibition", "setting": "[2]; 20 ug, study day 17 (9/19)", "value": 69.46, "unit": "%"}, {"measurement": "Mean % Inhibition", "setting": "[2]; 20 ug, study day 21 (9/23)", "value": 50.75, "unit": "%"}, {"measurement": "Mean % Inhibition", "setting": "[2]; 20 ug, study day 24 (9/26)", "value": 66.96, "unit": "%"}, {"measurement": "Mean % Inhibition", "setting": "[2]; 20 ug, study day 28 (9/30)", "value": 50.75, "unit": "%"}, {"measurement": "Mean % Inhibition", "setting": "[2]; 20 ug, study day 31 (10/3)", "value": "−18.27", "unit": "%"}, {"measurement": "Mean % Inhibition", "setting": "[2]; 100 ug, study day 14 (9/16)", "value": 68.20, "unit": "%"}, {"measurement": "Mean % Inhibition", "setting": "[2]; 100 ug, study day 17 (9/19)", "value": 92.51, "unit": "%"}, {"measurement": "Mean % Inhibition", "setting": "[2]; 100 ug, study day 21 (9/23)", "value": 98.50, "unit": "%"}, {"measurement": "Mean % Inhibition", "setting": "[2]; 100 ug, study day 24 (9/26)", "value": 93.21, "unit": "%"}, {"measurement": "Mean % Inhibition", "setting": "[2]; 100 ug, study day 28 (9/30)", "value": 94.68, "unit": "%"}, {"measurement": "Mean % Inhibition", "setting": "[2]; 100 ug, study day 31 (10/3)", "value": 80.15, "unit": "%"}]}]}
